This is an account of results in US9345678B2, “Prostanoid receptor agonist compounds and methods of use for same” (ALLERGAN, INC., priority 2013, dated 2016).

Experiment [1] concerns cytokine secretion in human monocyte derived dendritic cells. In words: Cytokine secretion in LPS-stimulated human monocyte derived dendritic cells. The format is cell-based. The procedure:
FIGS. 8A-F illustrate the effect of different IP receptor agonists and antagonists on cytokine secretion in human monocyte derived dendritic cells stimulated with LPS. In these experiments, the cells were exposed to cicaprost, cicaprost in conjunction with DMSO, and cicaprost with an IP receptor antagonist (Formula VI). Cytokines measured for were TNF-α, IL-6, MCP-1, MIP-1β, IL-8, and IL-12p70, corresponding to FIGS. 8A through 8F, respectively. The concentration ranges of cicaprost were 0 nM, 0.1 nM, 1 nM, 10 nM, 100 nM, and 1000 nM. The concentration of Formula VI IP receptor antagonist used was 10 uM throughout. The concentration of the various cytokines tested for were measured in ng/ml. The concentration of the DMSO used in conjunction with cicaprost was at 0.1%.

The test system of experiment [2] is MCP-1 secretion in human macrophages. Put plainly: Effect on MCP-1 secretion in stimulated human macrophages in vitro. The format is cell-based. As to conditions: Macrophage. The protocol:
(§1) FIGS. 1A-B illustrate the effect of cicaprost on IL-8 secretion on in vitro human macrophages. The human macrophages were simulated either with lipopolysaccharide (LPS), illustrated in FIG. 1A, or with TNF-α, illustrated in FIG. 1B. The labels on the x-axis correspond respectively to tests measuring IL-8 concentration with no stimulus, a control of only stimulant vehicle (i.e., LPS or TNF-α), and stimulant vehicle in conjunction with cicaprost concentrations of 0.1 nM, 1 nM, 10 nM, 100 nM, and 1000 nM. The y-axis tracks the percentage change of concentration of IL-8 versus the control stimulant vehicle, which is set at 100%.
FIGS. 2A-B illustrate the effect of cicaprost on MCP-1 secretion on in vitro human macrophages. The human macrophages were simulated either with LPS, illustrated in FIG. 2A, or with TNF-α, illustrated in FIG. 2B. The labeling of the graphs is otherwise the same as described above.

Experiment [3] deals with IL-8 secretion in human macrophages. Put plainly: Effect on IL-8 secretion in stimulated human macrophages in vitro. The format is cell-based. As to conditions: Macrophage, LPS stimulation, FIG. 1A. The protocol:
The human macrophages were simulated either with lipopolysaccharide (LPS), illustrated in FIG. 1A, or with TNF-α, illustrated in FIG. 1B. The labels on the x-axis correspond respectively to tests measuring IL-8 concentration with no stimulus, a control of only stimulant vehicle (i.e., LPS or TNF-α), and stimulant vehicle in conjunction with cicaprost concentrations of 0.1 nM, 1 nM, 10 nM, 100 nM, and 1000 nM. The y-axis tracks the percentage change of concentration of IL-8 versus the control stimulant vehicle, which is set at 100%.

The test system of experiment [4] is MIP-1β secretion in human macrophages. Put plainly: Effect on MIP-1β secretion in stimulated human macrophages in vitro. As to conditions: Macrophage. The format is cell-based. The protocol: as §1
FIGS. 4A-B illustrate the effect of cicaprost on MIP-1β secretion on in vitro human macrophages. The human macrophages were simulated either with LPS, illustrated in FIG. 4A, or with TNF-α, illustrated in FIG. 4B. The labeling of the graphs is otherwise the same as described above.

The subject of experiment [5] is rat endotoxin-induced uveitis (EIU) model. Put plainly: Rat EIU model: cytokine concentration in the aqueous humor. It is filed as in vivo. As to conditions: LPS challenge, topical cicaprost 0.001%, 0.01%, 0.1%, vs vehicle. The protocol:
FIGS. 10A-C depict the results of experiments measuring cytokine expression in a rat EIU model, where the rats were challenged with LPS. Cytokine concentration (here, MCP-1, RANTES, and IL-6) was measured subsequent to the LPS challenge, after topical application of cicaprost at concentrations from 0.001%, 0.01%, and 0.1%, together with a control eye drop vehicle (abbreviated “Vehicle” in the figures) where no cicaprost was present.

The test system of experiment [6] is VEGF secretion in human macrophages. In words: Effect on VEGF secretion in TNF-α-stimulated human macrophages in vitro. It is filed as cell-based. As to conditions: Macrophage, TNF-α stimulation, FIG. 7. The protocol: as §1
FIG. 7 illustrates the effect of cicaprost on VEGF secretion on in vitro human macrophages. The human macrophages were simulated with TNF-α. The labeling of the graphs is otherwise the same as described above.

Experiment [7] relates to RANTES secretion in human macrophages. In words: Effect on RANTES secretion in stimulated human macrophages in vitro. The format is cell-based. As to conditions: Macrophage. The protocol:
as §1
FIGS. 5A-B illustrate the effect of cicaprost on RANTES secretion on in vitro human macrophages. The human macrophages were simulated either with LPS, illustrated in FIG. 5A, or with TNF-α, illustrated in FIG. 5B. The labeling of the graphs is otherwise the same as described above.

Experiment [8] deals with rat endotoxin-induced uveitis (EIU) model. In words: Rat endotoxin-induced uveitis (EIU) model: cell infiltrate and protein leakage in the aqueous humor. The format is in vivo. As to conditions: for Protein concentration in the aqueous humor: FIG. 11B; for Cell infiltrate in the aqueous humor: FIG. 9C. The text has this: FIGS. 9A-D show the results of experiments where cicaprost was applied topically to inhibit inflammation in a rat endotoxin-induced uveitis (EIU) model. Here, the rats were challenged with LPS, and the resulting inflammatory reaction was quantified by measuring leukocyte cell infiltration in the aqueous humor and by measuring the amount of protein leakage into the aqueous humor. In the Figures, “LPS” corresponds to the control where no other topical treatment was applied. “Vehicle” corresponds to an eye drop ophthalmic vehicle solution containing no drug, and which otherwise comprises 0.1% polysorbate 80 in an aqueous medium. “Pred-Forte” corresponds to an ophthalmic solution of 1% prednisolone acetate. “Acular” corresponds to an ophthalmic solution of 0.4% ketorolac. The concentrations of cicaprost used in the ophthalmic vehicle solution were 0.001%, 0.01%, and 0.1%.
FIGS. 11A-B show the results of experiments measuring cell infiltrate and protein in the aqueous humor in a rat EIU model challenged with LPS, where the rats were challenged in a similar manner as described previously. Cicaprost, as well as the cicaprost prodrugs described above in Formulas II-V, were separately topically dosed as a 0.1% ophthalmic solution.

Experiment [9] relates to MIP-1α secretion in human macrophages. Put plainly: Effect on MIP-1α secretion in stimulated human macrophages in vitro. The format is cell-based. As to conditions: Macrophage. The protocol: as §1
FIGS. 3A-B illustrate the effect of cicaprost on MIP-1α secretion on in vitro human macrophages. The human macrophages were simulated either with LPS, illustrated in FIG. 3A, or with TNF-α, illustrated in FIG. 3B. The labeling of the graphs is otherwise the same as described above.

The subject of experiment [10] is corneal wound (anterior keratectomy), donated human eyes. In words: Corneal wound closure in an anterior segment model of donated human eyes. As to conditions: 0.1% cicaprost, two drops at 0 and 9 hours, wound area at 18 hours, vs vehicle-dosed eye, 3 pairs of donor eyes. The procedure:
The effect of cicaprost on corneal wound healing was evaluated in an anterior segment model using 3 pairs of donated human eyes. Wounding (anterior keratectomy, AK) was induced by scoring the cornea in 8 mm diameter, and the epithelium was removed using a gill knife. The anterior segment of the eye was dissected and cultured in complete medium on a rotating platform for several days to maintain tissue differentiation. Two drops (approximately 50 μl per drop) of 0.1% cicaprost were dosed at 0 and 9 hours on one eye (“Cp”), while the other eye (“CN”) was treated with vehicle (0.1% polysorbate 80 in saline). The initial wound and the progression of wound closure was visualized with 0.015% fluorescein, and the wound area recorded at 0 and 18 hours, as shown in FIG. 12.

The test system of experiment [11] is TNF-α secretion in human macrophages. Put plainly: Effect on TNF-α secretion in LPS-stimulated human macrophages in vitro. As to conditions: Macrophage, LPS stimulation, FIG. 6. It is filed as cell-based. The procedure:
as §1
FIG. 6 illustrates the effect of cicaprost on TNF-α secretion on in vitro human macrophages. The human macrophages were simulated with LPS. The labeling of the graphs is otherwise the same as described above.

Where [12] appears, read: LPS challenge, topical 0.1% ophthalmic solution, vs control vehicle.

Like-named read-outs stand apart in the source and are kept apart here.

`CCC#CC[C@H](C)[C@H](O)C#C[C@@H]1[C@H]2C/C(=C/COCC(=O)O)C[C@H]2C[C@H]1O` [cicaprost]: the “Cytokine expression (TNF-α, IL-6, MCP-1, MIP-1β, IL-8, IL-12p70)” value is on record as “increasing inhibition of cytokine expression” in experiment [1] (cicaprost 0.1-1000 nM with 0.1% DMSO) and “increasing inhibition of cytokine expression” in experiment [1] (cicaprost 0.1-1000 nM, vs 0 nM control). Besides, the IC50 (in general, the concentration that gives 50% inhibition) in experiment [2] (LPS stimulation, FIG. 2A, read-out: IC50 on MCP-1 secretion stimulated by LPS) turned out to be 0.7 nM; in [2] (TNF-α stimulation, FIG. 2B, read-out: IC50 on MCP-1 secretion), 0.5 nM; in [3] it was 0.8 nM; in experiment [4] (LPS stimulation, FIG. 4A, read-out: IC50 on MIP-1β secretion stimulated by LPS), 0.5 nM; in experiment [4] (TNF-α stimulation, FIG. 4B, read-out: IC50 on MIP-1β secretion), 0.7 nM; in [7] (LPS stimulation, FIG. 5A, read-out: IC50 on RANTES secretion stimulated by LPS), 0.8 nM. Further, the IC50 in experiment [7] (TNF-α stimulation, FIG. 5B, read-out: IC50 on RANTES secretion) worked out at 1.6 nM; in experiment [9] (LPS stimulation, FIG. 3A, read-out: IC50 on MIP-1α secretion stimulated by LPS), 0.3 nM; in [9] (TNF-α stimulation, FIG. 3B, read-out: IC50 on MIP-1α secretion), 0.6 nM; in experiment [11], 0.14 nM. Moreover, the IL-6 concentration result in [5] is given as “reduced the concentration of the monitored cytokines”. For the same molecule, the MCP-1 concentration result in [5] was “reduced the concentration of the monitored cytokines”. In addition, the RANTES concentration entry in experiment [5] was “reduced the concentration of the monitored cytokines”. For the same molecule, the EC50 (commonly the concentration giving half of the maximal effect) in [6] was determined as 2.3 nM. Further, in [8] (LPS challenge, topical 0.1% ophthalmic solution, vs control vehicle, FIG. 11A), the “Cell infiltration in the aqueous humor” value is given as “caused a reduction in cell infiltration”. Moreover, the “Protein concentration in the aqueous humor” value (“Protein concentration” below) in experiment [8] (setting [12]) is “reduced protein concentration in the aqueous humor”. In addition, the “Cell infiltrate in the aqueous humor” value in experiment [8] (topical 0.1% cicaprost solution) was “reduced cell infiltrate to near-zero levels”; in [8] (topical cicaprost 0.001%, 0.01%, 0.1%), “increasing effect on lowering cell infiltrate”. For the same molecule, in experiment [8] (topical cicaprost 0.001-0.1%, especially 0.1%, FIG. 9D), the “Protein in the aqueous humor” value is listed as “also reduced”. Moreover, the “Percentage of wound closure” value in experiment [10] is reported as “showed an improvement in the percentage of wound closure”.

Turning to `CCC#CC[C@H](C)[C@@H](C#C[C@@H]1[C@H]2C/C(=C/COCC(=O)O)C[C@H]2C[C@H]1O)OC(C)=O` [Formula IV], the “Protein concentration” value in [8] (setting [12]) was “some reduction in protein concentration”.

For the molecule `CCC#CC[C@H](C)[C@@H](C#C[C@@H]1[C@H]2C/C(=C/COCC(=O)O)C[C@H]2C[C@H]1O)OC(=O)CC` [Formula V], the “Protein concentration” value in experiment [8] (setting [12]) is “some reduction in protein concentration”.

As to `C=C/C(=C\C=C\Cc1ccc(NC2=NCCN2)cc1)OCC` [Formula VI, reference compound], in experiment [1] (Formula VI 10 uM with cicaprost 0-1000 nM), the “Cytokine expression on addition of the IP receptor antagonist to cicaprost” value is recorded as “caused cytokine expression to remain elevated in comparison”.

Take `CCC#CC[C@H](C)[C@H](O)C#C[C@@H]1[C@H]2C/C(=C/COCC(=O)O)C[C@H]2C[C@H]1OC(=O)CC` [Formula III]: the “Protein concentration” value in experiment [8] (setting [12]) is “approximately comparable to cicaprost in effect”.

`CCC#CC[C@H](C)[C@H](O)C#C[C@@H]1[C@H]2C/C(=C/COCC(=O)O)C[C@H]2C[C@H]1OC(C)=O` [Formula II]: in [8] (setting [12]), the “Protein concentration” value is recorded as “some reduction in protein concentration”.
